Source: patent EP4755891A1, “ARF1 INHIBITOR AND USE THEREOF” (AOBIO PHARMACEUTICAL CO., LTD., priority 2023, dated 2025)
“Also recorded” adds a separate entry of the source.

How the values were obtained:
Mouse neuroblastoma N2A = assay: Test for Golgi morphology abnormalities (GM130 immunofluorescence); assay type: cell-based; settings: N2A cells; FIG. 4
Method: GCA, a known Arf1 inhibitor, was used as a positive control.
Mouse neuroblastoma N2A (N2a, ATCC®CCL-131™) was cultured, treated, and subjected to immunofluorescence staining as previously reported (Wang et al., 2021).

CCL5 = assay: Upregulation of chemokine CCL5 expression (quantitative RT-PCR); assay type: cell-based, Murine; settings: CT26 cells; FIG. 5
Method: In this example, the upregulation of chemokine CCL5 expression induced by the treatment of Compounds 3 and 9 synthesized in the above preparation examples was tested. Quantitative RT-PCR was used to measure the expression level of chemokine CCL5 in CT26 cells treated with DMSO, Compound 3, or Compound 9.

NF-κB signaling pathway = assay: Activation of NF-κB signaling pathway (phosphorylated P65, Western blot); assay type: cell-based, Murine; settings: CT26 cells; FIG. 6
Method: In this example, Compounds 3 and 9 synthesized in the above preparation examples were tested for their ability to activate the NF-κB signaling pathway, as indicated by an increase of phosphorylated P65. GCA, a known Arf1 inhibitor, was used as a positive control.
In CT26 cells treated with DMSO, GCA, Compound 3, or Compound 9, the relevant protein levels were evaluated by Western blot analysis as previously described (Wang et al., 2020).

[1] = test system: Drosophila orthotopic tumors; assay: Inhibition of orthotopic tumor growth in Drosophila; assay type: in vivo; settings: 5 µM in food, 4 days; Ras^V12-PMML clones; FIG. 7
Method: In this example, the inhibitory effects of Compounds 3 and 9 synthesized in the above preparation examples on the growth of Drosophila orthotopic tumors were tested. As previously described, renal stem cell tumor clusters were induced by expressing Ras in Drosophila renal stem cell (Ras^V12-PMML) clones (Singh et al., 2016). The Drosophila carrying Ras^V12-PMML clones were cultured with normal food at room temperature for 4 days to allow tumor growth. They were then switched to food containing the indicated drugs for an additional 4 days, followed by feeding the Drosophila carrying Ras^V12-PMML with normal food containing DMSO or 5 µM Compound 3 or Compound 9. In the indicated groups, the number of esg>GFP + tumor cells per 5×10^3 µm^2 area was quantified to characterize tumor size.

B16-F10 melanoma = assay: Inhibition of B16-F10 melanoma in C57B/6 mice; assay type: in vivo; settings: 5 mg/kg, oral, two consecutive weeks
Method: In this example, the inhibitory effect of Compound 9 synthesized in the above preparation example on melanoma tumor growth was tested.
Murine B16-F10 cells were inoculated at a dose of 5×10^5 cells per mouse into the left abdomen of 6-week-old male mice. Approximately 7 days later, the mice were treated orally with ddH2O or the novel Arf1 inhibitor for two consecutive weeks. The mice were randomly divided into three groups: the control group, the Compound 9 treatment group, and the DU102 treatment group. The mice were administered ddH2O, 5 mg/kg of Compound 9 (dissolved in ddH2O), or 5 mg/kg of DU102 (dissolved in a solvent composed of 5% DMSO + 95% corn oil, as a positive control) for two consecutive weeks. Tumor diameters were measured every 2-3 days using a digital caliper (ULINE, Cat^# H-7352), and the tumor volume was calculated using the formula ½ × longitudinal diameter (length) × maximum transverse diameter (width). When the maximum tumor volume reached 2000 mm^3, the mice were euthanized.

[2] = Plasma stability, mouse plasma; assay type: in vitro ADME; settings: 2.0 µM, 37°C
Method: (§1) At 37°C, 2.0 µM of the compound was co-incubated with plasma samples from five species (mouse, rat, dog, cynomolgus monkey, human) for 120 minutes. The concentration of the compound in the samples was detected by the liquid chromatography-tandem mass spectrometry (LC-MS/MS) method, and the half-life (T1/2) was calculated.

[3] = Plasma stability, rat plasma; assay type: in vitro ADME; settings: 37°C; for remaining amount in plasma: rat plasma, 2.0 µM
Method: as §1

[4] = Plasma stability, dog plasma; assay type: in vitro ADME; settings: 2.0 µM, 37°C
Method: as §1

[5] = Plasma stability, human plasma; assay type: in vitro ADME; settings: 2.0 µM, 37°C
Method: as §1

[6] = Permeability in Caco-2 cells; assay type: in vitro ADME; settings: human, Caco-2, pH 7.4, 2.00 µM
Method: (§2) The permeability of Compound 9 was evaluated using Caco-2 cells. The transport buffer used in this study was HBSS with 10.0 mM HEPES, pH 7.40±0.05. The test concentration was 2.00 µM, and a bidirectional test was performed on the test compound. Digoxin was repeatedly tested bidirectionally at 10.0 µM, while nadolol and metoprolol were repeatedly tested in the A-B direction at 2.00 µM. The final DMSO concentration was adjusted to less than 1%. The mixture was incubated at 37.0°C, 5% CO2, saturated humidity, without shaking in a CO2 incubator for 2 hours. All samples were mixed with acetonitrile containing internal standards and centrifuged at 3220 × g for 10 mins. The concentrations of the test compound and reference compound in the initial solution, donor solution, and acceptor solution were determined by the LC-MS/MS, using the analyte/internal standard peak area ratio.

Caco-2 cells = assay: Permeability in Caco-2 cells; assay type: in vitro ADME; settings: Caco-2, conclusion in words
Method: as §2

[7] = Solubility in DMSO and H2O

## Cc1csc2ncnc(Nc3ccc4c(c3)ncn4C)c12 [Compound 9, 5-Methyl-N-(1-methyl-1H-benzo[d]imidazol-5-yl)thieno[2,3-d]pyrimidin-4-amine]
Mouse neuroblastoma N2A
  Golgi morphology (Golgi apparatus defects, distribution of Golgi marker GM130): induce Golgi apparatus defects; also recorded: effectively induce morphological changes in the Golgi apparatus
CCL5
  expression of the chemokine CCL5: effectively promote the expression
NF-κB signaling pathway
  phosphorylation level of P65: increase the phosphorylation level of P65
[1]
  orthotopic tumor growth in Drosophila: effectively inhibit orthotopic tumor growth
B16-F10 melanoma; FIG. 8
  B16-F10 melanoma growth: effectively inhibit B16-F10 melanoma growth
B16-F10 melanoma; FIG. 8A
  size of murine melanoma tumors: significantly inhibited the size of murine melanoma tumors
B16-F10 melanoma; FIG. 8B
  weight of murine melanoma tumors: significantly reduced the weight of murine melanoma tumors
[2]; time point 0 min
  remaining amount in plasma: 100.0%
[2]; time point 10 min
  remaining amount in plasma: 99.3%
[2]; time point 30 min
  remaining amount in plasma: 98.6%
[2]; time point 60 min
  remaining amount in plasma: 104.1%
[2]; time point 120 min
  remaining amount in plasma: 96.5%
[3]; plasma, printed in the Rat row
  half-life at 2 µM: > 4.82 h
[3]; time point 0 min
  remaining amount in plasma: 100.0%
[3]; time point 10 min
  remaining amount in plasma: 102.1%
[3]; time point 30 min
  remaining amount in plasma: 93.5%
[3]; time point 60 min
  remaining amount in plasma: 99.3%
[3]; time point 120 min
  remaining amount in plasma: 93.2%
[4]; time point 0 min
  remaining amount in plasma: 100.0%
[4]; time point 10 min
  remaining amount in plasma: 99.0%
[4]; time point 30 min
  remaining amount in plasma: 94.0%
[4]; time point 60 min
  remaining amount in plasma: 98.8%
[4]; time point 120 min
  remaining amount in plasma: 86.0%
[5]; time point 0 min
  remaining amount in plasma: 100.0%
[5]; time point 10 min
  remaining amount in plasma: 99.8%
[5]; time point 30 min
  remaining amount in plasma: 108.9%
[5]; time point 60 min
  remaining amount in plasma: 113.3%
[5]; time point 120 min
  remaining amount in plasma: 104.6%
[6]; 2 hours, pH 7.40±0.05
  Papp A→B at 2 h, 2 µM: 29 ×10⁻⁶ cm/s
  Papp B→A at 2 h, 2 µM: 20.7 ×10⁻⁶ cm/s
[6]; bidirectional, read-out: Efflux Ratio (ER)
  efflux ratio at 2 h, 2 µM: 0.714
Caco-2 cells
  cellular permeability: high cellular permeability
  substrate of the efflux transporter P-gp: unlikely to be a substrate of the efflux transporter P-gp
[7]; DMSO, FIG. 2A
  solubility in DMSO: soluble
[7]; H2O, FIG. 2B
  solubility in H2O: high solubility
